Assay results as given in patent publication US8497083B2, “Fructosyl amino acid oxidase” (priority 2009, dated 2013).

Experiments:
[1] = molecular target: fructosyl amino acid oxidase from Phaeosphaeria nodorum (PnFPOX, SEQ ID NO: 1) variant N56A (Parastagonospora nodorum, UniProt Q0UIL6, N56A); assay: Dehydrogenase activity kinetics (mPMS/DCIP), PnFPOX N56A mutant; assay type: biochemical; details: purified enzyme, 25° C., pH 7.0
Excerpt: (§1) As used herein, “dehydrogenase activity” is an enzymatic activity (Vmax) of the fructosyl amino acid oxidase to catalyze oxidation of fructosyl amino acid to generate 2-keto-D-glucose and the corresponding amino acid while utilizing an electron mediator other than oxygen as an electron acceptor. The dehydrogenase activity may be assayed by measuring the amount of electrons transferred to the mediator using, for example, one of mPMS/DCIP (1-methoxy-5-methylphenazinium methylsulfate/2,6-dichloroindophenol), cPES (trifluoro-acetate-1-(3-carboxy-propoxy)-5-ethyl-phenanzinium, NA BM31—1144 (N,N-bis-(hydroxyethyl)-3-methoxynitrosoaniline hydrochloride, NA BM31—1008 (N,N-bis-hydroxyethyl-4-nitrosoaniline) and N—N-4-dimethyl-nitrosoaniline.
(§2) As used herein in the context of the relative or quantitative activity, the dehydrogenase activity is specifically defined to be the mole amount of the substrate (fructosyl amino acid) oxidized per unit time measured by the amount of electrons transferred to the mediator at 25° C. in 10 mM PPB (pH 7.0), 0.6 mM DCIP, and 6 mM methoxy PMS (mPMS).
Escherichia coli BL21 (DE3) cells harboring expression vectors of N1-1 FAOD (SEQ ID NO: 2) mutants were grown in 150 ml of LB medium containing 50 μg/ml kanamycin at 37° C. After reaching an A660 value of 0.6, 0.3 mM IPTG was added and incubated at 25° C. for an additional 5 hours. The cells were collected by centrifugation and washed twice with 0.85% NaCl.aq. Then, the cells were resuspended in 10 mM Potassium Phosphate Buffer (PPB) pH 7.0 and lysed by ultrasonic homogenizer. The lysate was centrifuged at 10,000×g, 4° C. for 10 min, and the supernatant was centrifuged at 50,000 rpm, 4° C. for 60 min, then the supernatant was dialyzed against 10 mM PPB (pH 7.0). The oxidase activity was assayed at 25° C. in 10 mM PPB, pH 7.0, 1.5 mM TODB, 2 U/ml horseradish peroxidase (POD), and 1.5 mM 4-aminoantipyrine (4AA) in the presence of substrates (0.2, 0.5, 0.75, 1, 2, 5 mM f-^αVal […]). The formation of quinoneimine dye was measured spectrophotometrically at 546 nm. The dehydrogenase activity was assayed at 25° C. in 10 mM PPB (pH 7.0), 0.6 mM DCIP, and 6 mM methoxy PMS (mPMS) in the presence of substrates (0.2, 0.5, 1, 2, 5 mM f-^αVal or 5 mM f-^αVal-His).
Mutations were introduced using site-directed mutagenesis as in Example 1, and BL21 (DE3) cells were transformed with an expression vector containing wild-type or mutant PnFPOX (SEQ ID NO: 1). The cultured cells were resuspended in 10 mM PPB, pH 7.0, and lysed by sonication. The lysate was centrifuged at 10,000 g at 4° C. for 20 min, and the supernatant was centrifuged at 50,000 rpm at 4° C. for 60 min. The oxidase and dehydrogenase activities were measured as in Example 1. […]

[2] = molecular target: T1, fructosyl amino acid oxidase from Pichia sp. N1-1 (N1-1 FAOD), wild type, SEQ ID NO: 2 (Pichia sp. N1-1, UniProt Q3L8U0); assay: Dehydrogenase activity kinetics (mPMS/DCIP), N1-1 FAOD wild type; assay type: biochemical; details: mPMS/DCIP over 4AA/TODB/POD
T1 construct: 427 aa
T1 sequence (Q3L8U0 1-427): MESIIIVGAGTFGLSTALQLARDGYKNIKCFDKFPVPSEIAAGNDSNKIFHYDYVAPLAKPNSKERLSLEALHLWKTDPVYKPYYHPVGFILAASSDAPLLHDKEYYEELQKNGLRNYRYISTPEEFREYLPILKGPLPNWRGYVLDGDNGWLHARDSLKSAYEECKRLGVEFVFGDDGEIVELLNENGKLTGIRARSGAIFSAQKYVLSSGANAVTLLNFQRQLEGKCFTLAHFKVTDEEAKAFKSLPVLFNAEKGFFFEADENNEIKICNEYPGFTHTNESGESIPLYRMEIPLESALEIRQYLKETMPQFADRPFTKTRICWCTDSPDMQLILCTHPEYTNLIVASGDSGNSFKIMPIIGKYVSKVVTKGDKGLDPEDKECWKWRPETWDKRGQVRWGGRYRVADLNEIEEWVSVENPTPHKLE
Excerpt: as §1, §2
Escherichia coli BL21 (DE3) cells harboring expression vectors of N1-1 FAOD (SEQ ID NO: 2) mutants were grown in 150 ml of LB medium containing 50 μg/ml kanamycin at 37° C. […] The formation of quinoneimine dye was measured spectrophotometrically at 546 nm. […]

Sequence of fructosyl amino acid oxidase from Phaeosphaeria nodorum (PnFPOX, SEQ ID NO: 1) variant N56A (Q0UIL6 whole entry N56A): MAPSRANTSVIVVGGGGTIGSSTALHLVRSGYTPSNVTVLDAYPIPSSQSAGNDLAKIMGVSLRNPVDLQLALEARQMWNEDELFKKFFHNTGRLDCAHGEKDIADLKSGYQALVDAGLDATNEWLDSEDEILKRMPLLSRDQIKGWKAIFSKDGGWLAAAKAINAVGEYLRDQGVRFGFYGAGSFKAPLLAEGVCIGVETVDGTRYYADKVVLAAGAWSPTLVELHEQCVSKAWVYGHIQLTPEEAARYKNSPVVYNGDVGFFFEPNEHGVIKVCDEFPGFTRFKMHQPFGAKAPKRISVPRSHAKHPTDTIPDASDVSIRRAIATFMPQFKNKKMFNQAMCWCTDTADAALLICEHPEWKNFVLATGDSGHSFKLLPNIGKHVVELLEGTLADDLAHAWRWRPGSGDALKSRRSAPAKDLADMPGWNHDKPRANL

Compound: CC(C)[C@H](NCC1(O)OC[C@@H](O)[C@@H](O)[C@@H]1O)C(=O)O (stereo partly drawn) [f-αVal, fructosyl valine]
- Vmax [1]: 95.1 U/mg
- B/A (Vmax dehydrogenase/Vmax oxidase) ([2]; crude preparation): 1.2
- B/A (Vmax dehydrogenase/Vmax oxidase) ([2]; purified enzyme): 1.1
